Legend:
[1] = tested on: ERK1/2; experiment: Western analysis of phosphorylated p44/p42 MAPK in U937 cells; type: cell-based, human; conditions: 10 nM PMA, 100 nM FP, 30 min-6 h
Experimental: (§1) Western analysis. Equal quantities of protein (15 μg/condition for MAPK, 40 μg/condition for cytochrome c, or 25 μg/condition) were separated by SDS-PAGE [underphosporylated pRB (7.5%), poly(ADP-ribose)polymerase or PARP (8.0%), p44/p42 MAPK (10%), p21, p27, procaspase 3 (12%), and cytochrome c (15%)] and electroblotted onto nitrocellulose. Western analysis of p44/p42 MAPK protein was performed according to the manufacturer's instructions (New England Biolabs); otherwise, studies were performed as previously described [Wang et al, 1998]. Briefly, U937 cells (5×10^6) were pelleted by centrifugation, resuspended in 50 μl PBS, lysed by the addition of 2× Laemmli buffer and boiled for 5 min. Proteins were quantified with Coomassie protein assay reagent. Blots were blocked in PBS-T/5% milk, washed twice with PBS-T, and incubated overnight at 4° C. with the appropriate primary antibody. The blots were washed with PBS-T and incubated with a horseradish-peroxidase conjugated secondary antibody diluted appropriately in PBS-T/5% mill. Following incubation, blots were developed by enhanced chemiluminescence exposure to Kodak X-OMAT film (Eastman Kodak Co., Rochester, N.Y.) and reprobed with antibodies directed against actin to control for equal loading of protein.

[2] = tested on: XIAP; experiment: Western analysis of XIAP in U937 cells; type: cell-based, human; conditions: FP 100 nM, SB 1 mM
Experimental: Alternatively, whole cell-pellets were washed twice in PBS, resuspended in PBS, and lysed by the addition of I volume of loading buffer. Lysates were boiled for 10 min, centrifuged at 12,800 g for 5 min and quantified using Coomassie protein assay reagent (Pierce, Rockfold, Ill.). 25 μg of total proteins per point were separated by SDS-PAGE and electro-blotted to nitrocellulose. The blots were blocked in 5% non-fat milk in PBS-T and probed for 1 h with the appropriate dilution of primary antibody. Blots were washed 3×10 min in PBS-T and then incubated with a 1:2000 dilution of peroxidase-conjugated secondary antibody for 1 h at room temperature. Blots were again washed 3×10 min in PBS-T and then developed by enhanced chemiluminesence. Where indicated, blots were stripped and re-probed with antibodies directed against actin. […]

[3] = tested on: HL-60 human promyelocytic leukemia cells; experiment: morphological assessment of apoptosis; type: cell-based; conditions: 3, 5, or 10 μM ATRA, 80 nM FP
Source text: (§2) Cell culture. The myelomonocytic leukemia cell line U937 was derived from a patient with histiocytic lymphoma and was obtained from American Type Culture Collection. The HL-60 cell line was derived from a patient with acute promyelocytic leukemia as previously described [Grant et al. 1992]. U937 and HL-60 cells were maintained in logarithmic growth phase by culturing in suspension in phenol red-free RPMI-1640 (Life Technologies, Inc., Grand Island, N.Y.) and 10% (v/v) fetal calf serum (Hyclone, Logan, Utah), in a humidified atmosphere (95% air/5% CO2) at 37° C. To obtain antisense-expressing cell lines, U937 cells were transfected by electroporation with a pREP4 vector (Invitrogen; Carlsbad, Calif.) or the pREP4 vector containing the p21^WAF1/CIP1 coding region in an antisense orientation as previously described [Wang et al. 1999]. […]
(§3) Morphological assessment of apoptosis. U937 cells were evaluated for apoptosis by morphological assessment of Wright and Giemsa-stained cytospin preparations. At designated times, cells were transferred to slides by cytocentrifugation, fixed, stained, and evaluated under light microscopy for treatment-induced apoptosis. […] Five or more randomly selected fields, encompassing a total≧500 cells/slide, were evaluated to determine the percentage of apoptotic cells for each treatment condition.

[4] = tested on: U937 human leukemia cells; experiment: morphological assessment of apoptosis (Wright and Giemsa-stained cytospin); type: cell-based
Source text: as §2, §3

[5] = tested on: p27KIP1; experiment: Western analysis of p27KIP1 expression in U937 cells; type: cell-based, human; conditions: 10 nM PMA, FP 50-100 nM, 24 h
Experimental: as §1, with “Following incubation, blots were developed by enhanced chemiluminescence exposure to Kodak X-OMAT film (Eastman Kodak Co., Rochester, N.Y.) and reprobed with antibodies directed against actin to control for equal loading of protein.” left out
Alternatively, whole cell-pellets were washed twice in PBS, resuspended in PBS, and lysed by the addition of I volume of loading buffer. Lysates were boiled for 10 min, centrifuged at 12,800 g for 5 min and quantified using Coomassie protein assay reagent (Pierce, Rockfold, Ill.). […]

## CN1CC[C@H](c2c(O)cc(O)c3c(=O)cc(-c4ccccc4Cl)oc23)[C@H](O)C1 [FP, Flavopiridol]
[1]
  phosphorylation (activation) of ERK1/2: modestly increased ERK activation
[2]
  levels of XIAP: modest decreases
[3]
  % apoptosis: minimal effect
[4]; FP concentrations ≦100 nM, regardless of treatment interval (6-24 h)
  percentage of apoptotic cells: ≤ 10%
[4]; FP concentrations ≧200 nM, chronic exposures (12 or 24 h)
  induction of apoptosis: susceptible to apoptosis
[5]
  p27KIP1 expression: no effect

From patent US20050004007A1, “Promotion of adoptosis in cancer cells by co-administration of cyclin dependent kinase inhibitiors and cellular differentiation agents” (priority 2000, published 2005)
